# Values quoted from earlier work, collected in patent US20130274214A1, “METHOD FOR TREATING BLEPHARITIS” (INSPIRE PHARMACEUTICALS, INC., priority 2010, published 2013).
# Test system: meibomian gland secretions (meibum)
# Settings: daily topical administration to the ocular surface; subjects with meibomian gland dysfunction
structure (smiles),measurement,value
CC[C@H]1OC(=O)[C@H](C)[C@@H](O[C@H]2C[C@@](C)(OC)[C@@H](O)[C@H](C)O2)[C@H](C)[C@@H](O[C@@H]2O[C@H](C)C[C@H](N(C)C)[C@H]2O)[C@](C)(O)C[C@@H](C)CN(C)[C@H](C)[C@@H](O)[C@]1(C)O [azithromycin],physicochemical properties of the meibum,improved the physicochemical properties of the meibum towards that of normal subjects
